Test results published in patent US20230064990A1, “DOSING REGIMENS AND METHODS FOR TREATING CANCER” (Panbela Therapeutics, Inc., priority 2020, published 2023).

Tests used:
PDA = settings: pivotal trials; cited from earlier work
[1] = Phase 1a/1b study in combination with G and A, safety; assay type: in vivo, human; settings: N=20
Protocol: G (1000 mg/m^2) and A (125 mg/m^2) were administered intravenously on Days 1, 8, and 15 of each cycle. […] PK was evaluated on day 1 of cycle 1. Efficacy was assessed by CA19-9 levels, objective response was assessed by RECIST criteria, progression-free survival (PFS) and overall survival (OS).
This is a multicenter, open label, Phase 1a/1b study to evaluate to evaluate the safety, tolerability, pharmacokinetics and efficacy of (S,S)-(HO)2DEHSPM when administered in combination with G and A as first-line therapy in pancreatic cancer patients previously untreated for metastatic disease. The objective was to determine a recommended Phase 2 dose. Using a modified 3+3 dose escalation scheme, cohorts of subjects were dosed with subcutaneous injections of (S,S)-(HO)2DEHSPM at 0.2, 0.4 or 0.6 mg/kg days 1-5 of each 28-day cycle. Gemcitabine (1000 mg/m^2) and A (125 mg/m^2) were administered intravenously on Days 1, 8, and 15 of each cycle. […] PK was evaluated on day 1 of cycle 1. Efficacy was assessed by objective response rate (ORR) using RECIST criteria and by changes in CA19-9 levels. Subjects were treated until disease progression or the development of dose-limiting toxicity. Based upon initial safety findings and preliminary signals of efficacy, the protocol was amended to evaluate progression-free survival (PFS) and overall survival (OS) and expand the study to up to 36 subjects at the recommended Phase 2 dose. To date, 20 subjects were enrolled in cohorts 1-3 and evaluated for dose limiting toxicity and early signals of efficacy.

[2] = system: human L3.6pl pancreatic cancer cells; assay: Orthotopic implantation of L3.6pl pancreatic cancer cells into nude mice; settings: Study 3, GEM 100 mg/kg 2×/wk ip, (S,S)-(HO)2DEHSPM 25 mg/kg 3×/wk
Protocol: These studies examined the anti-neoplastic effects of subcutaneous administration of (S,S)-(HO)2DEHSPM following orthotopic implantation of human L3.6pl pancreatic cancer cells into the pancreas of nude mice.
L3.6pl cells were injected into the pancreas of nude mice; treatment was initiated by group (n=10/group planned) 7-10 days later following establishment of tumors:
Study 1: saline (control), (S,S)-(HO)2DEHSPM (25 mg/kg), (S,S)-(HO)2DEHSPM (50 mg/kg), and (S,S)-(HO)2DEHSPM (100 mg/kg) daily (QD) for 4 to 6 weeks (wks).
Study 2: saline (control), (S,S)-(HO)2DEHSPM (25 mg/kg QD), (S,S)-(HO)2DEHSPM (25 mg/kg 3×/wk), (S,S)-(HO)2DEHSPM (15 mg/kg 3×/wk), and (S,S)-(HO)2DEHSPM (5 mg/kg 3×/wk) for 4 to 6 wks.
Study 3: saline (control), gemcitabine (GEM) (100 mg/kg 2×/wk, intraperitoneally), (S,S)-(HO)2DEHSPM (25 mg/kg 3×/wk), and (S,S)-(HO)2DEHSPM+GEM for 4 to 6 wks.

| Compound | DCR, historical rate (PDA) [%] | ORR, historical rate (PDA) [%] | Grade ≥3 Elevated LFTs related to the named study medication (subjects) [1] | decreases in body weight ([2]; 4 to 6 wks) [%] | decreases in pancreas weight ([2]; compared with controls) [%] | decreases in tumor volume ([2]; compared with controls) [%] |
| --- | --- | --- | --- | --- | --- | --- |
| FOLFIRINOX | 70 | 32 |  |  |  |  |
| Nc1ccn([C@@H]2O[C@H](CO)[C@@H](O)C2(F)F)c(=O)n1 [GEM, gemcitabine, reference compound] |  |  | 1 (G) | 18.7 | 24.7 | 37.8 |
